Values belong to the substance of their own block, whether it stands above or below them.
Legend:
[1] = test system: Aβ40 fibrillation; assay: Transmission electron microscopy of Aβ40 fibrils; parameters: species or system human; details: 20 μM Aβ40 alone or with 4 μM S100A8 or S100A9, after ThT assay (30 °C, pH 7.4)
Method: A 300-mesh copper grid coated with a 0.2% formvar film was placed onto a 10 µL drop of the sample. After allowing the sample (after the ThT fluorescence assay) to adsorb for 10 min, the grid was negatively stained for 2 min using a 1% (w/v) aqueous solution of uranyl acetate. Excess staining solution was removed with filter paper, followed by a 1 min rinse in deionized water. The samples were examined using a JEM-1400Plus (HC) transmission electron microscope (JEOL, Ltd., Tokyo, Japan) operated at 80 keV.

[2] = target: Toll-like receptor 4 (Homo sapiens) (UniProt O00206); details: cited from earlier work
[3] = target: Toll-like receptor 4; details: in the presence of Ca^2+ and Zn^2+; cited from earlier work
[4] = test system: Aβ40/Aβ42; assay: Chemical cross-linking with glutaraldehyde, SDS-PAGE; assay type: binding, human; details: faint band; 0.02% glutaraldehyde, 37 °C, 1 h, 25–75 μM S100A8, 20 μM Aβ40/Aβ42, pH 7.4
Method: The protein solution was incubated at 25 °C for 30 min prior to the cross-linking.

[5] = test system: HSA–Aβ42 interaction; assay: BLI competition: HSA interaction with monomeric Aβ42 in presence of S100A8/S100A9; assay type: binding, human; details: 67 µM HSA with 12 µM S100A8 or 7 µM S100A9; 25 °C, pH 7.4, 2.5 mM CaCl2
Method: (§1) Next, 96-well microplates with analyte solutions were kept at 25 °C and shaken at 1000 rpm. The Aβ samples were pretreated with neat TFA, followed by dissolution in DMSO as described in ref. [61, 66]. The pretreated ligand (5 μg/mL Aβ40/Aβ42 in 10 mM sodium acetate, pH 4.5 buffer) was immobilized onto Octet® AR2G biosensor (Sartorius AG, Göttingen, Germany) by amine coupling using EDAC/sulfo-NHS to achieve the loading level of 3.5 nm. The rest of the activated amine groups on the sensor were blocked by 1 M ethanolamine solution. The noncovalently bound ligand molecules were washed off the sensor with a 0.5% SDS water solution, followed by passage of the assay buffer (20 mM Tris-HCl, 140 mM NaCl, 4.9 mM KCl, 2.5 mM CaCl2, 1 mM MgCl2, pH 7.4), resulting in the loading level of 1.5 nm. […] The sensor surface was regenerated by the passage of 0.5% SDS water solution for 30 s.

[6] = test system: monomeric Aβ42; assay: Bio-layer interferometry, analyte binding to immobilized monomeric Aβ42; parameters: species or system human; details: for ka × 10^−2: association, bivalent analyte model, number is ka multiplied by 10^−2, 25 °C, pH 7.4, 2.5 mM CaCl2, mean ± SD, n = 3–4
Method: (§2) Next, 96-well microplates with analyte solutions were kept at 25 °C and shaken at 1000 rpm. The Aβ samples were pretreated with neat TFA, followed by dissolution in DMSO as described in ref. [61, 66]. […] The rest of the activated amine groups on the sensor were blocked by 1 M ethanolamine solution. […] The sensor surface was regenerated by the passage of 0.5% SDS water solution for 30 s.
(§3) The direct interaction of S100 proteins with monomeric Aβ was studied by biolayer interferometry in the buffer conditions mimicking the physiological conditions (20 mM Tris-HCl, 140 mM NaCl, 4.9 mM KCl, 2.5 mM CaCl2, 1 mM MgCl2, pH 7.4).
(§4) Since the S100 proteins are predominantly dimeric, their BLI sensograms were described within the bivalent analyte model (1), taking into account that the dimer concentration is half of the monomer concentration.

[7] = test system: HSA–Aβ40 interaction; assay: BLI competition: HSA interaction with monomeric Aβ40 in presence of S100A8/S100A9; assay type: binding, human; details: 67 µM HSA with 12 µM S100A8 or 7 µM S100A9; 25 °C, pH 7.4, 2.5 mM CaCl2
Method: as §1

[8] = target: RAGE V domain (Homo sapiens) (UniProt Q15109); details: cited from earlier work
[9] = target: RAGE V domain; details: cited from earlier work
[10] = test system: monomeric Aβ40; assay: Bio-layer interferometry, analyte binding to immobilized monomeric Aβ40; parameters: species or system human; details: association; bivalent analyte model; number is ka multiplied by 10^−2; 25 °C, pH 7.4, 2.5 mM CaCl2; mean ± SD, n = 3–4
Method: as §2, §3, §4

[11] = test system: Aβ40; details: cited from earlier work
Description: Another component colocalized with senile plaques and associated with AD are specific members of the S100 protein family (reviewed in ref. [36]). The S100 family contains over two dozen small (9–13 kDa) multifunctional Ca^2+-binding proteins of the EF-hand superfamily, defined by the presence of the EF-hand motif, which coordinates a calcium ion through a loop located between two α-helices. Some S100 proteins affect cognitive processes, neuronal development and maintenance, APP processing, Aβ levels, the formation of amyloid plaques, post-translational modif ...

Sequence of Toll-like receptor 4 (Homo sapiens) (O00206 24-839): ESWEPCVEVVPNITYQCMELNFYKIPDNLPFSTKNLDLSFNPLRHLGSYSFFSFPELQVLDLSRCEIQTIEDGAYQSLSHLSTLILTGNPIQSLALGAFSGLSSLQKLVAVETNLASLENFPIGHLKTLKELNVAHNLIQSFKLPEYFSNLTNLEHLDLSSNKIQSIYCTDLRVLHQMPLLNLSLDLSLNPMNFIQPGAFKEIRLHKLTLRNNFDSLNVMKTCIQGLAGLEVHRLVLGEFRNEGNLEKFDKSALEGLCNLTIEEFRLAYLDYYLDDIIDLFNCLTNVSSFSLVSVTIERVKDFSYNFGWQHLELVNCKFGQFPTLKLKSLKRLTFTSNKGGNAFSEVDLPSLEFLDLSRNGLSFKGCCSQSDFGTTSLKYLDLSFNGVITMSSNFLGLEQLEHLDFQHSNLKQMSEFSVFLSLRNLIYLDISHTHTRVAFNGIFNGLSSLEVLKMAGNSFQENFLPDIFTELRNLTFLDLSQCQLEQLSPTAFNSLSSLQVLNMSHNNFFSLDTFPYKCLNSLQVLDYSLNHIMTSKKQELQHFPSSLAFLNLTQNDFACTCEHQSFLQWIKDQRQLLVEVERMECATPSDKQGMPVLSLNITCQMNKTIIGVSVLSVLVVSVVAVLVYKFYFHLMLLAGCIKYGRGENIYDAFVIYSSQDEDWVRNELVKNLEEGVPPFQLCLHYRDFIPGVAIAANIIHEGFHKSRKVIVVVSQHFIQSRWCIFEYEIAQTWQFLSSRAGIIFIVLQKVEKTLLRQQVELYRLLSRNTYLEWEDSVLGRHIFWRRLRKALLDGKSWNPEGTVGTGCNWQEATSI
Sequence of S100A9 (P06702 whole entry): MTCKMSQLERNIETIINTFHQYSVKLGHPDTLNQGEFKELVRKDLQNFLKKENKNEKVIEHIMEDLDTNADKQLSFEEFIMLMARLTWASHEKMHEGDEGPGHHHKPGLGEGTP
Sequence of RAGE V domain (Homo sapiens) (Q15109 23-116): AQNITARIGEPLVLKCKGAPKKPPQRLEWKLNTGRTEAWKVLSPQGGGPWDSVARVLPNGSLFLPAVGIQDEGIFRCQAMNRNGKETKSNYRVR

Substance: Aβ40: Recombinant human amyloid-β peptide, 40 residues, prepared in E. coli
fibril morphology by TEM [1]: dense clusters of the intertwined mature fibrils reaching microns in length

Substance: S100A8 (from UniProt P05109)
Kd [2]: 1000 nM

accelerated association with Aβ42 versus Aβ40 ([6]; Aβ42 vs Aβ40): 1.5 fold
slower dissociation from Aβ42 versus Aβ40 ([6]; Aβ42 vs Aβ40): 2.4 fold
ka × 10^−2 [6]: 3.4 ± 0.9 M^−1s^−1
Substance: S100A8: Recombinant human S100A8 prepared in E. coli; pro-inflammatory EF-hand Ca2+-binding protein
Kd [3]: 1000 nM
band of cross-linked complex of S100A8 and Aβ monomers [4]: about 15 kDa
maximal BLI signal of HSA interaction with Aβ42 [5]: marked decline in the maximal BLI signal
maximal BLI signal of HSA interaction with Aβ40 [7]: marked decline in the maximal BLI signal

Substance: S100A9 (from UniProt P06702)
Kd [8]: 5500 nM

ka × 10^−2 [6]: 4.5 ± 1.3 M^−1s^−1
ka × 10^−2 [10]: 2.6 ± 1.0 M^−1s^−1
Substance: S100A9: Recombinant human S100A9 prepared in E. coli; pro-inflammatory EF-hand Ca2+-binding protein
maximal BLI signal of HSA interaction with Aβ42 [5]: marked decline in the maximal BLI signal
maximal BLI signal of HSA interaction with Aβ40 [7]: marked decline in the maximal BLI signal
Kd [9]: 5000 to 6000 nM
direct S100A9–Aβ40 interaction by NMR [11]: direct S100A9–Aβ40 interaction

Source: paper PMC11939996 (Biomolecules, 2025)
